# Measured values as given in patent publication US20240132449A1, “HETEROCYCLIC COMPOUNDS AND METHODS OF USE THEREOF” (1cBio, Inc., priority 2022, published 2024).
# Structures can show the parent of a compound that is named as a salt.
# Tests used:
# [1] = tested on: DLD-1 wild-type colorectal adenocarcinoma cells; assay: Cell viability assay (Cell Titer-Glo), DLD-1 wild-type; type: cell-based; details: Homo sapiens, DLD-1, 168 h, 7 days incubation; for inhibition at 10 µM: read-out: DLD-1 wild-type % inh at 10 μM; for IC50: 50 cells/well
# Procedure: (§1) Compounds of the present disclosure were tested for their effects on the viability of cancer cells. DLD-1 wild-type and DLD-1 BRCA2(−/−) colorectal adenocarcinoma cells, an isogenic pair of cell lines differing in the presence and absence, respectively, of both BRCA2 alleles, were used. The cells were harvested during the logarithmic growth period, counted, and seeded at 50 cells/well for DLD-1 wild-type and 200 cells/well for DLD-1 BRCA2(−/−) in a 384-well cell culture plate. After seeding, cells were incubated at 37° C., 5% CO2 overnight. Cells were treated with serially diluted test compounds at 10 concentrations (e.g., from 1.5 nM-30 μM) for generation of dose response curves, or at a single concentration. The plate was further incubated for another 7 days in a humidified incubator at 37° C. and 5% CO2. Cell viability was assessed by luminescence measurement after addition of Cell Titer-Glo reagent (Promega, Madison, Wis.) according to the manufacturer's instructions. Cell viability IC50 values were calculated using XLFit, equation 201: y=A+((B−A)/(1+((x/C)^D))), where A=bottom, B=top, C=IC50, and D=slope. IC50 values are shown in Table B and are presented in ranges, in which “+++”<300 nM, 300 nM≤“++”<3000 nM, and “+”≥3000 nM. Values for percent inhibition at 10 μM are also shown in Table B and are presented in ranges, in which “***”≥67%, 33%≤“**”<67%, and “*”<33%. Effects of the test compounds on the viability of other cell lines such as MDA-MB-436, MDA-MB-231, SUM149PT, HCC1395, and UWB1.289 are determined in an analogous method.
# [2] = tested on: DLD-1 BRCA2(−/−) colorectal adenocarcinoma cells; assay: Cell viability assay (Cell Titer-Glo), DLD-1 BRCA2(−/−); type: cell-based; details: Homo sapiens, DLD-1, 168 h; 7 days incubation, 200 cells/well
# Procedure: as §1
# recombinant human PARP2 = recombinant human PARP2 (Homo sapiens, UniProt Q9UGN5); assay: PARP2 fluorescence polarization binding assay; details: for inhibition at 10 µM: read-out: PARP2 % inh at 10 μM; for IC50: binding IC50, GST-tagged PARP2 20 nM, PARPi-FL 3 nM
# Sequence of recombinant human PARP2 (Q9UGN5 whole entry): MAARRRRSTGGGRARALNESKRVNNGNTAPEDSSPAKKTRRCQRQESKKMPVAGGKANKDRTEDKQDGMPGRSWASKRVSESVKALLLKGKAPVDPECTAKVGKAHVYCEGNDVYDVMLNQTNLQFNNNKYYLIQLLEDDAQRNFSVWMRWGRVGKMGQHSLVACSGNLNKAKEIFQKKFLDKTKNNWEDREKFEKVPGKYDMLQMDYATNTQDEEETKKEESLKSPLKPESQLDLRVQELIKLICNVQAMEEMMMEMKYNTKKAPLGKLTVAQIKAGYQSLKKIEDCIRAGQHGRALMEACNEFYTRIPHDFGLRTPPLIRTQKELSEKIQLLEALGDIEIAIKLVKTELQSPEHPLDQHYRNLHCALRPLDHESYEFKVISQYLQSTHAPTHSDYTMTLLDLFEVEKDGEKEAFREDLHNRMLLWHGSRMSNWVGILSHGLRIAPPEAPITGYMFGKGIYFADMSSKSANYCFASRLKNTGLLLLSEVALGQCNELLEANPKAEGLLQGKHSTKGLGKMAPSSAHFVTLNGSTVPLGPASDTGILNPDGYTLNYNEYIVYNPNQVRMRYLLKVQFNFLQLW
# Procedure: Compounds of the present disclosure were tested in a PARP2 fluorescence polarization binding assay at Pharmaron (Beijing, P.R. China). In this biochemical assay, binding of test compound to recombinant human PARP2 reduces the amount of binding of a fluorescent probe, and consequently reduces the detected level of fluorescence polarization. Test compound stock solutions were prepared in DMSO and then serially diluted into 10 concentrations by 3-fold dilution in a 384-well plate using a TECAN EVO200. Alternatively, a single concentration was prepared. 60 nL of each dilution was transferred to the plate using an Echo550 (Labcyte), and then 10 μL 40 nM GST-tagged PARP2 (BPS Bioscience, Cat #80502), diluted in assay buffer (50 mM Tris pH 8.0, 0.001% Triton X-100, 10 mM MgCl2, 150 mM NaCl), was added to the plate. After a centrifugation at 1000 rpm for 1 min, the assay plate was incubated for 30 min at RT. 10 μL 6 nM PARPi-FL (TOCRIS, Cat #6461), diluted using assay buffer, was then added to the plate. […] After a centrifugation at 1000 rpm for 1 min, the assay plate was incubated for 4 h at RT. Samples in each well were read using an Envision instrument (Perkin-Elmer; Ex=480 nm Em=FITC FP-P pol 535 nm & FITC FP-S pol 535 nm). […] Binding IC50 values were calculated using XLFit (equation 201: […])^D))), where A=bottom, B=top, C=IC50, and D=slope) with a floating top and bottom for curves.
# PARP1 [3] = biological target: T1, PARP1 (Homo sapiens, UniProt P09874); assay: PARP1 fluorescence polarization binding assay; details: binding IC50, GST-tagged PARP1 20 nM, PARPi-FL 3 nM
# T1 sequence (P09874 whole entry): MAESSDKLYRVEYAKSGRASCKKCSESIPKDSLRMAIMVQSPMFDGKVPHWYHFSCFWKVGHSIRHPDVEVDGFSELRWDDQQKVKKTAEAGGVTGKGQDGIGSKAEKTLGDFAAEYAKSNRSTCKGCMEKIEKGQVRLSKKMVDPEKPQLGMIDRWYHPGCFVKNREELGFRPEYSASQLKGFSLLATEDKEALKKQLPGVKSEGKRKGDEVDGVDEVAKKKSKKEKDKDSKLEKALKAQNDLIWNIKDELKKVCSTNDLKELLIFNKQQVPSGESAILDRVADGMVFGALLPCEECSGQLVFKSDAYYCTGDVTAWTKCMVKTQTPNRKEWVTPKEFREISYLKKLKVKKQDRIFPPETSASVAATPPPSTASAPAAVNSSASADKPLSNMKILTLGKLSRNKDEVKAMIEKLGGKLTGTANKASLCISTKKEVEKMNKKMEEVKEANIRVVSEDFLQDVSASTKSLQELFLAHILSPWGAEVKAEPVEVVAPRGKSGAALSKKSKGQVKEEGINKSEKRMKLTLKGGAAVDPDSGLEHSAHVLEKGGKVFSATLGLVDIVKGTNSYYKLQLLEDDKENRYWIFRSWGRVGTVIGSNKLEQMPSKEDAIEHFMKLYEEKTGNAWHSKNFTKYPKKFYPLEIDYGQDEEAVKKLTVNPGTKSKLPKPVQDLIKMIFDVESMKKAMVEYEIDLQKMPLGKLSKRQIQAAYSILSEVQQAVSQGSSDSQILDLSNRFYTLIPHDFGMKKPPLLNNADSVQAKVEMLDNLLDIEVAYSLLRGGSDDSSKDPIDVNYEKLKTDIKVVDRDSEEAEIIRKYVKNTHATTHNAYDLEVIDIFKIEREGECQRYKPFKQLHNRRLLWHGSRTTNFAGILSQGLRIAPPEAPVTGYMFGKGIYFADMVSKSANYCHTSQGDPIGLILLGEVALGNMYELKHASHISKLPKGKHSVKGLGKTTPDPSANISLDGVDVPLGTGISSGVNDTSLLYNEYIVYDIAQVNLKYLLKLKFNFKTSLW
# Procedure: Compounds of the present disclosure were tested in a PARP1 fluorescence polarization binding assay at Pharmaron (Beijing, P.R.China). In this biochemical assay, binding of test compound to recombinant human PARP1 reduces the amount of binding of a fluorescent probe, and consequently reduces the detected level of fluorescence polarization. Test compound stock solutions were prepared in DMSO and then serially diluted into 10 concentrations by 3-fold dilution in a 384-well plate using a TECAN EVO200. 60 nL of each dilution was transferred to the plate using an Echo550 (Labcyte), and then 10 μL 40 nM GST-tagged PARP1 (BPS Bioscience, Cat #80501), diluted in assay buffer (50 mM Tris pH 8.0, 0.001% Triton X-100, 10 mM MgCl2, 150 mM NaCl), was added to the plate. After a centrifugation at 1000 rpm for 1 min, the assay plate was incubated for 30 min at RT. 10 μL 6 nM PARPi-FL (TOCRIS, Cat #6461), diluted using assay buffer, was then added to the plate. The final concentrations of PARP1 and PARPi-FL were 20 nM and 3 nM, respectively, in a total volume of 20 μL. After a centrifugation at 1000 rpm for 1 min, the assay plate was incubated for 4 h at RT. Samples in each well were read using an Envision instrument (Perkin-Elmer; Ex=480 nm Em=FITC FP-P pol 535 nm & FITC FP-S pol 535 nm). Percent inhibition was calculated from mP values using Inhibition (%)=[1−(mPc−mPL)/(mPH−mPL)]×100%, where mPc, mPL, and mPH are the mP values of test compound, Low controls, and High controls, respectively. Binding IC50 values were calculated using XLFit (equation 201: y=A+((B−A)/(1+((x/C)^D))), where A=bottom, B=top, C=IC50, and D=slope) with a floating top and bottom for curves. Binding IC50 values are shown in Table A and are presented in ranges, in which “+++”<100 nM, 100 nM≤“++”<3000 nM, and “+”≥3000 nM.
# PARP1 [4] = biological target: T1, PARP1; assay: PARP1 biochemical trapping assay (BPS PARPtrap)
# Procedure: Compounds of the present disclosure were tested in a PARP1 biochemical trapping assay at BPS Bioscience (San Diego, CA). PARP1 is known to bind damaged DNA through its DNA-binding domains. Binding to DNA activates PARP1, and in the presence of NAD+, PARP1 ribosylates itself (auto-ribosylation), leading to PARP1 dissociation from the DNA due to the accumulated negative charge of the ribosyl polymer. In the presence of some inhibitors, however, PARP remains bound to the DNA, a phenomenon termed trapping.
# The BPS PARPtrap assay kit for PARP1 (BPS Catalog #80584) was used. A series of dilutions of the compounds were prepared with 10% DMSO in water. The final concentration of DMSO was 1% in all reactions. The enzymatic reactions were conducted in duplicates at room temperature in a 96-well plate. The 45 μl reaction mixtures in PARPtrap buffer 1 containing PARP1 fluorescent labelled oligonucleotide duplex, PARP enzyme and the test compound were incubated at room temperature for 10 min. After pre-incubation, the enzymatic reaction was initiated by adding 5 μl of 10×NAD+ solution. The reaction was incubated for 45-60 min at room temperature.
# Fluorescence polarization was measured at an excitation of 470 nm and an emission of 518 nm using a Tecan Infinite M1000 microplate reader. The blank value was subtracted from all other values. Fluorescence polarization was analyzed by Tecan Magellan 6 software and wells containing DNA were used as references. The fluorescence polarization data were then evaluated using GraphPad Prism software. The fluorescence polarization in absence of the compound in each data set was defined as 0% activity (FPo), while the fluorescence polarization in the absence of both NAD+ and the compound was defined as 100% activity (FPt). The percent activity in the presence of the compound was calculated according to the equation % activity=[FP−FPo]/[(FPt−FPo)]×100, where FP=the fluorescence polarization in the presence of the compound.
# The values of % activity versus a series of compound concentrations were then plotted using non-linear regression analysis of a sigmoidal dose-response curve generated with the equation Y=B+(T−B)/1+10^((LogEC50−X)×Hill Slope), where Y=percent activity, B=minimum percent activity, T=maximum percent activity, X=logarithm of compound and Hill Slope=slope factor or Hill coefficient. The EC50 value was determined by the concentration causing a half-maximal percent activity. EC50 values are shown in Table C and are presented in ranges, in which “+++”<300 nM, 300 nM≤“++”<3000 nM, and “+”≥3000 nM.
SMILES,inhibition at 10 µM [1] [%],IC50 [2] [nM],inhibition at 10 µM (recombinant human PARP2) [%],IC50 (PARP1 [3]) [nM],EC50 (PARP1 [4]) [µM],IC50 [1] [nM],IC50 (recombinant human PARP2) [µM]
CCn1c(=O)[nH]c2cc(CN3CCN(c4ccc(C(=O)NC5COC5)nc4C)CC3)sc2c1=O [Compound 323],< 33,> 3000,33 to 67,< 100,> 3,,
CCn1c(=O)[nH]c2cc(CN3CCN(c4ccc(C(=O)NC(CO)CO)nc4C)CC3)sc2c1=O [Compound 527],< 33,> 3000,33 to 67,< 100,> 3,,
CCn1c(=O)[nH]c2cc(CN3CCN(c4ccc(C(=O)NC)nc4C(F)(F)F)CC3)sc2c1=O [Compound 307],< 33,300 to 3000,33 to 67,< 100,0.3 to 3,> 3000,> 3
"CCn1c(=O)[nH]c2cc(CN3CCN(c4ccc(C(=O)NC)nc4C)C(=O)C3)sc2c1=O [Compound 334, 5-[4-({3-ethyl-2,4-dioxo-1H-thieno[3,2-d]pyrimidin-6-yl}methyl)-2-oxopiperazin-1-yl]-N,6-dimethylpyridine-2-carboxamide]",,,,100 to 3000,> 3,,
CCn1c(=O)[nH]c2cc(CN3CCN(c4ccc(C(=O)NC)nc4F)CC3)sc2c1=O [Compound 319],< 33,< 300,33 to 67,< 100,< 0.3,,
"CCn1c(=O)[nH]c2cc(CN3CCN(c4ccc(C(=O)NC)nc4)CC3)sc2c1=O [Compound 86, 5-(4-((3-ethyl-2,4-dioxo-1,2,3,4-tetrahydrothieno[3,2-d]pyrimidin-6-yl)methyl)piperazin-1-yl)-N-methylpicolinamide formate]",< 33,< 300,33 to 67,< 100,,,> 3
"CCn1c(=O)[nH]c2cc(CN3CCN(c4ccc(C(N)=O)nc4C)CC3)sc2c1=O [Compound 516, 5-(4-((3-ethyl-2,4-dioxo-1,2,3,4-tetrahydrothieno[3,2-d]pyrimidin-6-yl)methyl)piperazin-1-yl)-6-methylpicolinamide]",< 33,> 3000,33 to 67,< 100,,> 3000,> 3
